Data: ChEMBL document CHEMBL1139133, “A spectroscopic and molecular modeling study of sinomenine binding to transferrin” (Bioorg Med Chem Lett, 2007)

Species: Homo sapiens
Test: Binding affinity to human serum transferrin

For `COC1=C[C@@H]2[C@@H]3Cc4ccc(OC)c(O)c4[C@]2(CCN3C)CC1=O`, the Ka was 0.68 10^3/M.
